Data taken from article PMC10167629, “Computer-aided design of a cyclic di-AMP synthesizing enzyme CdaA inhibitor” (microLife, 2023).

Legend:
[1] = molecular target: T1, Lm CdaA (∆100CdaA) (Listeria monocytogenes, UniProt Q8Y5E4); assay: crystal structure by soaking; type: binding; details: active site, chain A
T1 construct: gene dacA; DAC domain, lacks transmembrane domain and linker (first 100 residues deleted); N-terminal GST tag cut with PreScission protease; plasmid pGEXpBP33, E. coli BL21(DE3); residues to at least 268 mentioned (96-104 and 256-268 disordered); non-catalytic back-to-back dimer in crystal
T1 sequence (Q8Y5E4 101-273): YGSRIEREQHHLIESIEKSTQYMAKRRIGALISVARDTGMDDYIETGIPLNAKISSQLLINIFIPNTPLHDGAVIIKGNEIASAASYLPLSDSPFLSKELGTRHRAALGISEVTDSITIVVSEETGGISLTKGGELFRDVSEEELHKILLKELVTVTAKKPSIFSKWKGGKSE

[2] = molecular target: T1, Lm CdaA (∆100CdaA); assay: ITC, […] binding model

Nc1ncnc2c1ncn2[C@@H]1O[C@H](CO)[C@@H](O)[C@H]1O [adenosine]
crystal structure by soaking [1]: we have determined crystal structures of CdaA complexes with adenine (Fig. 3B), adenosine (Fig. 3C)

CC(=O)Nc1nc(C)c(-c2csc(N)n2)s1 [compound 7]
Kd [2]: 16.3 ± 2.5 µM
